In the NIST ThermoML archive (doi:10.1007/s10765-009-0610-6):

Settings: Liquid; for mass density: 101.33 kPa, Vibrating tube method; for speed of sound: Pulse-echo method

BrCCCBr [1,3-dibromopropane]
Settings | mass density [kg/m3]
292.55 K | 1980.22
297.98 K | 1970.22
303.07 K | 1961.58
308.02 K | 1952.84
314.58 K | 1941.18

Settings | speed of sound [m/s]
292.66 K, 100 kPa | 1078.9
292.72 K, 15200 kPa | 1114.4
292.78 K, 30400 kPa | 1148.6
292.79 K, 45600 kPa | 1180.5
292.8 K, 60810 kPa | 1210.8
292.8 K, 91220 kPa | 1265.8
292.82 K, 76010 kPa | 1239.1
292.83 K, 101350 kPa | 1283
298.03 K, 76000 kPa | 1227.5
298.04 K, 45600 kPa | 1167.8
298.04 K, 60810 kPa | 1198.5
298.04 K, 91210 kPa | 1255
298.05 K, 30400 kPa | 1135.1
298.07 K, 15210 kPa | 1100.1
298.08 K, 101330 kPa | 1272.4
298.61 K, 100 kPa | 1062.6
302.95 K, 15210 kPa | 1087.4
302.95 K, 30410 kPa | 1123
302.95 K, 45600 kPa | 1156.1
302.95 K, 60790 kPa | 1187.2
302.95 K, 76010 kPa | 1216.7
302.95 K, 91220 kPa | 1244.5
302.95 K, 101350 kPa | 1262.3
303.58 K, 100 kPa | 1049
308.04 K, 76010 kPa | 1205.6
308.04 K, 91210 kPa | 1233.7
308.04 K, 101350 kPa | 1251.8
308.05 K, 15210 kPa | 1074.3
308.05 K, 30410 kPa | 1110.5
308.05 K, 45620 kPa | 1144.2
308.05 K, 60820 kPa | 1175.8
308.67 K, 100 kPa | 1035.3
313.41 K, 15230 kPa | 1060.7
313.41 K, 30410 kPa | 1097.5
313.41 K, 45610 kPa | 1131.7
313.41 K, 60800 kPa | 1163.8
313.41 K, 76010 kPa | 1194
313.42 K, 91200 kPa | 1222.6
313.42 K, 101330 kPa | 1240.8
314.7 K, 100 kPa | 1019

BrCCCCCBr [1,5-dibromopentane]
Settings | speed of sound [m/s]
292.38 K, 100 kPa | 1149.5
292.47 K, 91200 kPa | 1354
292.48 K, 30400 kPa | 1226.2
292.5 K, 45600 kPa | 1260.8
292.52 K, 60800 kPa | 1293.4
292.53 K, 15210 kPa | 1189.1
292.57 K, 101320 kPa | 1372.2
292.59 K, 76010 kPa | 1324.4
298 K, 60800 kPa | 1281.2
298 K, 91200 kPa | 1342.4
298 K, 101330 kPa | 1361.6
298.01 K, 45600 kPa | 1248
298.02 K, 30410 kPa | 1212.7
298.03 K, 15210 kPa | 1174.8
298.05 K, 76000 kPa | 1312.6
298.37 K, 100 kPa | 1133
303 K, 76000 kPa | 1302
303.01 K, 15200 kPa | 1162.1
303.01 K, 30400 kPa | 1200.6
303.01 K, 60790 kPa | 1270
303.01 K, 91200 kPa | 1331.8
303.01 K, 101340 kPa | 1350.7
303.02 K, 45600 kPa | 1236.5
303.4 K, 100 kPa | 1119.3
308.03 K, 15210 kPa | 1148.7
308.03 K, 30410 kPa | 1187.7
308.03 K, 45590 kPa | 1224
308.05 K, 101330 kPa | 1340
308.06 K, 60790 kPa | 1257.9
308.06 K, 76000 kPa | 1290.1
308.06 K, 91200 kPa | 1320.5
308.38 K, 100 kPa | 1105.8
313.14 K, 76030 kPa | 1279.3
313.16 K, 91210 kPa | 1310.1
313.16 K, 101330 kPa | 1330
313.17 K, 45610 kPa | 1212.3
313.18 K, 60800 kPa | 1246.8
313.2 K, 15210 kPa | 1135.8
313.2 K, 30410 kPa | 1175.5
314.36 K, 100 kPa | 1089.7
